What was measured:
Assay in all cases: cells
Set-up in all cases: species or system panel of human cancer cell lines; Eurofins OncoPanel proliferation; nuclei count by high-content fluorescence imaging, 10-point dose response
BPH1 = settings: Homo sapiens, BPH-1, 72 h, cell count, 3 days
Method in brief: (§1)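 Cells in RPMI 1640/10% FBS or special medium received compound the day after seeding, with a time-zero plate; 3-day incubation at 37°C, 5% CO2. Nuclei imaged by fluorescence microscopy; 10 half-log doses from 100 μM, 0.1% DMSO. EC50, IC50, GI50 and activity area (0–10) from curve fits.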

A-253 = settings: Homo sapiens, A253, 72 h, cell count, 3 days
Method in brief: as §1

CEM-C1 = settings: CEM/C1, 72 h, cell count, 3 days
Method in brief: as §1

SK-PN-DW = settings: 72 h, cell count, 3 days
Method in brief: as §1

SW1783 = settings: Homo sapiens, SW1783, 72 h, cell count, 3 days
Method in brief: as §1

AN3 CA = settings: Homo sapiens, AN3-CA, 72 h, cell count, 3 days
Method in brief: as §1

SW48 = settings: Homo sapiens, SW48, 72 h, cell count, 3 days
Method in brief: as §1

BxPC-3 = settings: Homo sapiens, BXPC-3, 72 h, cell count, 3 days
Method in brief: as §1

HCT-15 = settings: Homo sapiens, HCT-15, 72 h, cell count, 3 days
Method in brief: as §1

HLE = settings: Homo sapiens, HLE, 72 h, cell count, 3 days
Method in brief: as §1

Daudi = settings: Homo sapiens, Daudi, 72 h, cell count, 3 days
Method in brief: as §1

TE 381.T = settings: TE 381.T, 72 h, cell count, 3 days
Method in brief: as §1

UM-UC-3 = settings: Homo sapiens, UMUC3, 72 h, cell count, 3 days
Method in brief: as §1

LS123 = settings: Homo sapiens, LS-123, 72 h, cell count, 3 days
Method in brief: as §1

[1] = 50% of maximum possible response

Compound: C[C@@H]1CC(=O)NN=C1c1ccc(NN=C(C#N)C#N)cc1 [levosimendan]
- IC50 (BPH1; [1]): 8.33 µM
- GI50 (BPH1; corrected for time zero): 7.33 µM
- EC50 (BPH1; curve inflection point): 7.05 µM
- IC50 (A-253; [1]): 62.4 µM
- GI50 (A-253; corrected for time zero): 41.7 µM
- EC50 (A-253; curve inflection point): 62.4 µM
- IC50 (CEM-C1; [1]): 22.5 µM
- GI50 (CEM-C1; corrected for time zero): 18.8 µM
- EC50 (CEM-C1; curve inflection point): 22.5 µM
- IC50 (SK-PN-DW; [1]): 57.4 µM
- GI50 (SK-PN-DW; corrected for time zero): 43.3 µM
- EC50 (SK-PN-DW; curve inflection point): 57.4 µM
- IC50 (SW1783; [1]): 82.1 µM
- GI50 (SW1783; corrected for time zero): 35.6 µM
- EC50 (SW1783; curve inflection point): 82.1 µM
- IC50 (AN3 CA; [1]): 21.2 µM
- GI50 (AN3 CA; corrected for time zero): 11.6 µM
- EC50 (AN3 CA; curve inflection point): 21.2 µM
- IC50 (SW48; [1]): 13.5 µM
- GI50 (SW48; corrected for time zero): 9.81 µM
- EC50 (SW48; curve inflection point): 13.5 µM
- IC50 (BxPC-3; [1]): 89.2 µM
- GI50 (BxPC-3; corrected for time zero): 78 µM
- EC50 (BxPC-3; curve inflection point): 89.2 µM
- IC50 (HCT-15; [1]): 32.1 µM
- GI50 (HCT-15; corrected for time zero): 31 µM
- EC50 (HCT-15; curve inflection point): 30.8 µM
- IC50 (HLE; [1]): 26.5 µM
- GI50 (HLE; corrected for time zero): 24.3 µM
- EC50 (HLE; curve inflection point): 25.2 µM
- IC50 (Daudi; [1]): 16.3 µM
- GI50 (Daudi; corrected for time zero): 14.2 µM
- EC50 (Daudi; curve inflection point): 15.3 µM
- IC50 (TE 381.T; [1]): 24.5 µM
- GI50 (TE 381.T; corrected for time zero): 15.5 µM
- EC50 (TE 381.T; curve inflection point): 24.5 µM
- IC50 (UM-UC-3; [1]): 48.5 µM
- GI50 (UM-UC-3; corrected for time zero): 46 µM
- EC50 (UM-UC-3; curve inflection point): 48.5 µM
- IC50 (LS123; [1]): 53.3 µM
- GI50 (LS123; corrected for time zero): 22 µM
- EC50 (LS123; curve inflection point): 43.8 µM
